Counter-ions that a name gives are not always drawn.
The compounds below were run on Acinetobacter baumannii ATCC17961 (assay: Antimicrobial susceptibility testing: 90% growth inhibitory concentration (IC90) determination). Conditions: Acinetobacter baumannii ATCC17961; Iso-Sensitest broth; growth by OD 600 nm over 16 h; 35±2° C.; read-out: ATCC 17961 IC90.
Format: cell-based
Procedure, shortened: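 Twofold serial dilutions (e.g. 50 to 0.097 μM final) in Iso-Sensitest broth, inoculated at ~5×10^(5) CFU/ml, incubated at 35±2° C. OD600 read every 20 min over 16 h; IC90 derived from growth inhibition during logarithmic growth.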

| IC90 [nM] | Structure (SMILES) |
| --- | --- |
| 39 | Cn1c(-c2ccc(OC(F)F)c(Cl)c2F)cnc1C(=O)Nc1ccc(C(=O)N2CCN(C(=O)[C@@H]3C[C@@H](O)C[N+]3(C)C)CC2)c(Cl)c1 [Example B47, 5-[3-chloro-4-(difluoromethoxy)-2-fluoro-phenyl]-N-[3-chloro-4-[4-[(2S,4R)-4-hydroxy-1,1-dimethyl-pyrrolidin-1-ium-2-carbonyl]piperazine-1-carbonyl]phenyl]-1-methyl-imidazole-2-carboxamide; iodide] |
| 91 | Cn1c(-c2ccc(OC(F)F)c(F)c2Cl)cnc1C(=O)Nc1ccc(C(=O)N2CCN(C(=O)[C@@H]3C[C@@H](O)C[N+]3(C)C)CC2)c(Cl)c1 [Example B53] |
| 350 | COc1ccc(-c2cnc(C(=O)Nc3ccc(C(=O)N[C@H]4[C@@H]5CN(C(=O)[C@@H]6C[C@@H](O)C[N+]6(C)C)C[C@@H]54)c(Cl)c3)n2C)c(F)c1F [Example B54, N-[3-chloro-4-[(exo)-3-[(2 S,4R)-4-hydroxy-1,1-dimethyl-pyrrolidin-1-ium-2-carbonyl]-3-azabicyclo[3.1.01 hexan-6-yl]carbamoyl]phenyl]-5-(2,3-difluoro-4-methoxy-phenyl)-1-methyl-imidazole-2-carboxamide formate] |
| 150 | COc1ccc(-c2cnc(C(=O)Nc3ccc(C(=O)N[C@H]4[C@@H]5CN(C(=O)N[C@@H]6C[N+](C)(C)C[C@H]6O)C[C@@H]54)c(Cl)c3)n2C)c(F)c1F [Example B55, (exo)-6-[[2-chloro-4-[[5-(2,3-difluoro-4-methoxy-phenyl)-1-methyl-imidazole-2-carbonyl]amino]benzoyl]amino]-N-[(trans)-4-hydroxy-1,1-dimethyl-pyrrolidin-1-ium-3-yl]-3-azabicyclo[3.1.0]hexane-3-carboxamide formate] |
| 61 | Cn1c(-c2ccc(OCF)c(F)c2F)cnc1C(=O)Nc1ccc(C(=O)N2CCN(C(=O)C[N+](C)(C)C)CC2)c(Cl)c1 [Example B56, [2-[4-[2-chloro-4-[[5-[2,3-difluoro-4-(fluoromethoxy)phenyl]-1-methyl-imidazole-2-carbonyl]amino]benzoyl]piperazin-1-yl]-2-oxo-ethyl]-trimethyl-ammonium; formate] |
| 23 | Cn1c(-c2ccc(OC(F)F)c(F)c2Cl)cnc1C(=O)Nc1ccc(C(=O)N2CCN(C(=O)C3CC[N+](C)(CC(N)=O)CC3)CC2)c(Cl)c1 (stereo not shown) [Example C1, N-[4-[4-[1-(2-Amino-2-oxo-ethyl)-1-methyl-piperidin-1-ium-4-carbonyl]piperazine-1-carbonyl]-3-chloro-phenyl]-5-[2-chloro-4-(difluoromethoxy)-3-fluoro-phenyl]-1-methyl-imidazole-2-carboxamide;formate] |
| 34 | Cn1c(-c2ccc(OC(F)F)c(F)c2F)cnc1C(=O)Nc1ccc(C(=O)N2CCN(C(=O)C3CC[N+](C)(CC(N)=O)CC3)CC2)c(Cl)c1 (stereo not shown) [Example C2, N-[4-[4-[1-(2-amino-2-oxo-ethyl)-1-methyl-piperidin-1-ium-4-carbonyl]-piperazine-1-carbonyl]-3-chloro-phenyl]-5-[4-(difluoro-methoxy)-2,3-difluoro-phen-yl]-1-methyl-imidazole-2-carboxamide; formate] |

Same assay, conditions: Acinetobacter baumannii, ATCC17961, 16 h, read-out: ATCC 17961 IC90, Acinetobacter baumannii ATCC17961; Iso-Sensitest broth; growth by OD 600 nm over 16 h; 35±2° C.

| Structure (SMILES) | IC90 [nM] |
| --- | --- |
| COc1ccc(-c2cnc(C(=O)Nc3ccc(C(=O)N4CCN(C(=O)[C@@H]5C[C@@H](O)C[N+]5(C)C)CC4)c(Cl)c3)n2C)c(Cl)c1F [Example B43, 5-(2-chloro-3-fluoro-4-methoxy-phenyl)-N-[3-chloro-4-[4-[(2S,4R)-4-hydroxy-1,1-dimethyl-pyrrolidin-1-ium-2-carbonyl]piperazine-1-carbonyl]phenyl]-1-methyl-imidazole-2-carboxamide; formate] | 120 |
| COc1ccc(-c2cnc(C(=O)Nc3ccc(C(=O)N4CCN(C(=O)[C@@H]5[C@H](O)CC[N+]5(C)C)CC4)c(Cl)c3)n2C)c(F)c1F [Example B44, N-[3-chloro-4-[4-[(2S,3R)-3-hydroxy-1,1-dimethyl-pyrrolidin-1-ium-2-carbonyl]piperazine-1-carbonyl]phenyl]-5-(2,3-difluoro-4-methoxy-phenyl)-1-methyl-imidazole-2-carboxamide; formate] | 420 |
| Cn1c(-c2ccc(OCF)c(F)c2F)cnc1C(=O)Nc1ccc(C(=O)N2CCN(C(=O)[C@@H]3C[C@@H](O)C[N+]3(C)C)CC2)c(Cl)c1 [Example B45, N-[3-chloro-4-[4-[(2S,4R)-4-hydroxy-1,1-dimethyl-pyrrolidin-1-ium-2-carbonyl]piperazine-1-carbonyl]phenyl]-5-[2,3-difluoro-4-(fluoromethoxy)phenyl]-1-methyl-imidazole-2-carboxamide; formate] | 93 |
| COc1ccc(-c2cnc(C(=O)Nc3ccc(C(=O)N4CCN(C(=O)[C@@H]5CC[C@H](O)C[N+]5(C)C)CC4)c(Cl)c3)n2C)c(F)c1F [Example B46, N-[3-chloro-4-[4-[(2S,5S)-5-hydroxy-1,1-dimethyl-piperidin-1-ium-2-carbonyl]piperazine-1-carbonyl]phenyl]-5-(2,3-difluoro-4-methoxy-phenyl)-1-methyl-imidazole-2-carboxamide; formate] | 120 |
| COc1ccc(-c2cnc(C(=O)Nc3ccc(C(=O)N4CCN(C(=O)[C@@H]5C[C@@H](O)C[N+]5(C)C)CC4)c(Cl)c3)n2C)c(F)c1Cl [Example B48, 5-(3-chloro-2-fluoro-4-methoxy-phenyl)-N-[3-chloro-4-[4-[(2S,4R)-4-hydroxy-1,1-dimethyl-pyrrolidin-1-ium-2-carbonyl]piperazine-1-carbonyl]phenyl]-1-methyl-imidazole-2-carboxamide formate] | 76 |
| COc1ccc(-c2cnc(C(=O)Nc3ccc(C(=O)N4CCN(C(=O)[C@@H]5C=CC[N+]5(C)C)CC4)c(Cl)c3)n2C)c(F)c1F [Example B49, N-[3-chloro-4-[4-[(2S)-1,1-dimethyl-2,5-dihydropyrrol-1-ium-2-carbonyl]piperazine-1-carbonyl]phenyl]-5-(2,3-difluoro-4-methoxy-phenyl)-1-methyl-imidazole-2-carboxamide formate] | 120 |
| COc1ccc(-c2cnc(C(=O)Nc3ccc(C(=O)N4CCN(C(=O)[C@@H]5[C@@H](O)[C@@H](O)C[N+]5(C)C)CC4)c(Cl)c3)n2C)c(F)c1F [Example B50, N-[3-chloro-4-[4-[(2S,3R,4S)-3,4-dihydroxy-1,1-dimethyl-pyrrolidin-1-ium-2-carbonyl]piperazine-1-carbonyl]phenyl]-5-(2,3-difluoro-4-methoxy-phenyl)-1-methyl-imidazole-2-carboxamide formate] | 250 |
| COc1ccc(-c2cnc(C(=O)Nc3ccc(C(=O)N4CCN(C(=O)[C@@H]5C[C@@H](O)C[N+]5(C)C)CC4)c(Cl)c3)n2C)c(F)c1C#N [Example B51, N-[3-chloro-4-[4-[(2S,4R)-4-hydroxy-1,1-dimethyl-pyrrolidin-1-ium-2-carbonyl]piperazine-1-carbonyl]phenyl]-5-(3-cyano-2-fluoro-4-methoxy-phenyl)-1-methyl-imidazole-2-carboxamide; formate] | 540 |
| COc1ccc(-c2cnc(C(=O)Nc3ccc(C(=O)N4CCN(C(=O)[C@@H]5C[C@@H](O)C[N+]5(C)C)CC4)c(Cl)c3)n2C)c(F)c1C(F)(F)F [Example B52, N-[3-chloro-4-[4-[(2S,4R)-4-hydroxy-1,1-dimethyl-pyrrolidin-1-ium-2-carbonyl]piperazine-1-carbonyl]phenyl]-5-[2-fluoro-4-methoxy-3-(trifluoromethyl)phenyl]-1-methyl-imidazole-2-carboxamide; formate] | 520 |

Reference: patent US20240376073A1 (Hoffmann-La Roche Inc., priority 2021, published 2024)
